Experimental data published in PubChem BioAssay (NCI).
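Results reflect a 48-hour exposure of cells in 96-well plates to compound at five concentrations. Here, GI50 denotes the concentration required for 50% inhibition of growth. The concentration for full growth arrest is given as TGI.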

Columns and labels:
Experiment in all cases: DTP human tumour cell line panel, 48 h
786-0 renal = tested on: 786-0 renal
OVCAR-8 ovarian = tested on: OVCAR-8 ovarian
OVCAR-4 ovarian = tested on: OVCAR-4 ovarian
HS 578T breast = tested on: HS 578T breast
HCC-2998 colon = tested on: HCC-2998 colon
U251 CNS = tested on: U251 CNS
HCT-15 colon = tested on: HCT-15 colon
SNB-19 CNS = tested on: SNB-19 CNS
SNB-78 CNS = tested on: SNB-78 CNS
M19-MEL melanoma = tested on: M19-MEL melanoma

| Structure (SMILES) | TGI (786-0 renal) | TGI (OVCAR-8 ovarian) | TGI (OVCAR-4 ovarian) | TGI (HS 578T breast) | TGI (HCC-2998 colon) | TGI (U251 CNS) | TGI (HCT-15 colon) | TGI (SNB-19 CNS) | TGI (SNB-78 CNS) | GI50 (786-0 renal) | GI50 (OVCAR-8 ovarian) | GI50 (HS 578T breast) | GI50 (HCC-2998 colon) | GI50 (U251 CNS) | GI50 (HCT-15 colon) | GI50 (SNB-19 CNS) | GI50 (OVCAR-4 ovarian) | TGI (M19-MEL melanoma) |
| --- | --- | --- | --- | --- | --- | --- | --- | --- | --- | --- | --- | --- | --- | --- | --- | --- | --- | --- |
| OCCNC1c2cc(Cl)ccc2-c2c(Cl)cc(Cl)cc21 (stereo unspecified) | > 100 µM | > 100 µM | > 100 µM | > 100 µM | > 100 µM | > 100 µM | > 100 µM | > 100 µM |  |  |  |  |  |  |  |  |  |  |
| Cc1nc(C(=O)O)c2ccccc2n1 | > 100 µM | > 100 µM |  |  | > 100 µM | > 100 µM |  | > 100 µM | > 100 µM |  |  |  |  |  |  |  |  |  |
| C/C(=C\c1cnc(C)s1)[C@@H]1C[C@@H]2O[C@@H]2CCC[C@H](C)[C@H](O)[C@@H](C)C(=O)C(C)(C)[C@@H](O)CC(=O)O1 | > 100 µM | > 100 µM | > 100 µM | > 100 µM | > 100 µM | > 100 µM | > 100 µM | > 100 µM |  | < 0.01 µM | < 0.01 µM | 0.0117 µM | 0.0103 µM | < 0.01 µM | < 0.01 µM | < 0.01 µM |  |  |
| Nc1nc(Nc2ccccc2SSc2ccccc2Nc2nc(N)nc(C(Cl)(Cl)Cl)n2)nc(C(Cl)(Cl)Cl)n1 | 19.9 µM | 24.7 µM | 45.1 µM | > 100 µM | > 100 µM | 5.85 µM | 15 µM | 17.8 µM |  | 7 µM | 5.38 µM | 5.44 µM | 30.1 µM | 2.29 µM | 3.89 µM | 4.41 µM | 6.86 µM |  |
| COC1C(O)C(CO)OC(OC2C(O)COC(OC3C(C)OC(OC4C(O[C@H]5CC[C@@]6(C)C(CC=C7[C@H]6CCC68C(=O)O[C@@](C)(CCCC(C)C)[C@H]6[C@@H](OC(C)=O)C[C@@]78C)C5(C)C)OCC(OS(=O)(=O)O)C4O)C(OC4OCC(O)C(O)C4O)C3O)C2O)C1O (stereo partly specified) | 0.349 µM | 0.43 µM | 0.433 µM | 0.598 µM | 0.391 µM | 0.272 µM | 0.454 µM | 0.374 µM |  | 0.134 µM | 0.165 µM | 0.245 µM | 0.13 µM | 0.12 µM | 0.177 µM | 0.149 µM | 0.147 µM |  |
| COc1cc2nc(-c3cc(F)ccc3O)nc(N[C@@H]3CNC[C@H]3C(C)(C)O)c2cc1OC | 2.92 µM | 3.07 µM | 4.65 µM | 5.74 µM | 3.47 µM | 3.06 µM | 3.46 µM | 4.02 µM |  | 1.44 µM | 1.63 µM | 1.72 µM | 1.92 µM | 1.62 µM | 1.79 µM | 1.91 µM | 1.88 µM |  |
| C=CNC(=O)NC(=O)CSc1nnc(-c2ccccc2NC(=O)C(F)(F)F)c(=O)[nH]1 | > 100 µM | > 100 µM |  |  | > 100 µM | > 100 µM | > 100 µM | > 100 µM | > 100 µM |  |  |  |  |  |  |  |  | > 100 µM |
| Oc1cccc2ccc(N/N=C/c3cc(CN4CCOCC4)c(O)c4ncccc34)nc12 | 3.75 µM | 2.09 µM | 2.14 µM | 17.2 µM | 1.93 µM | 3.74 µM | 1.78 µM | 12.6 µM |  | 0.0444 µM | 0.0207 µM | 0.0479 µM | 0.0368 µM | < 0.0154 µM | < 0.0104 µM | 0.0169 µM | 0.0339 µM |  |
